Source: patent US20030032635A1, “Heterocyclic esters and amides” (priority 1996, published 2003)

How the values were obtained:
[1] = tested on: chick dorsal root ganglia (sensory neurons); test: Chick dorsal root ganglion cultures and neurite outgrowth; assay type: cell-based
Procedure: Dorsal root ganglia were dissected from chick embryos of ten day gestation. Whole ganglion explants were cultured on thin layer Matrigel-coated 12 well plates with Liebovitz L15 plus high glucose media supplemented with 2 mM glutamine and 10% fetal calf serum, and also containing 10 μM cytosine β-D arabinofuranoside (Ara C) at 37° C. in an environment containing 5% CO2. Twenty four hours later, the DRGs were treated with various immunophilin ligands. Forty-eight hours after drug treatment, the ganglia were visualized under phase contrast or Hoffman Modulation contrast with a Zeiss Axiovert inverted microscope. Photomicrographs of the explants were made, and neurite outgrowth was quantitated. Neurites longer than the DRG diameter were counted as positive, with total number of neurites quanitated per each experimental condition. Three to four DRGs are cultured per well, and each treatment was performed in duplicate.
The data for these experiments for representative compounds are presented in the “ED50” column of Table III.

FKBP12 (FKBP) = FKBP12 (FKBP) (Homo sapiens, UniProt P62942); test: Ki test procedure: inhibition of peptidyl-prolyl isomerase (rotamase) activity, chymotrypsin-coupled assay; assay type: biochemical; conditions: apparent Ki, substrate N-succinyl-Ala-Ala-Pro-Phe-p-nitroanilide
FKBP12 (FKBP), sequence (P62942 whole entry, species assumed): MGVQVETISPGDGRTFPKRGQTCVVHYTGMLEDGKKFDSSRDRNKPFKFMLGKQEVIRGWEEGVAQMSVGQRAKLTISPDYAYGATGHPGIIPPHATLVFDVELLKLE
Source text: As discussed above, the compounds of the present invention have an affinity, for the FK506 binding protein, particularly FKBP12. The inhibition of the prolyl peptidyl cis-trans isomerase activity of FKBP may be measured as an indicator of this affinity.
Inhibition of the peptidyl-prolyl isomerase (rotamase) activity of the inventive compounds can be evaluated by known methods described in the literature (Harding, et al., Nature, 1989, 341:758-760; Holt et al. J. Am. Chem. Soc., 115:9923-9938). The cis-trans isomerization of an alanine-proline bond in a model substrate, N-succinyl-Ala-Ala-Pro-Phe-p-nitroanilide, is monitored spectrophotometrically in a chymotrypsin-coupled assay, which releases paranitroanilide from the trans form of the substrate. The inhibition of this reaction caused by the addition of different concentrations of inhibitor is determined, and the data is analyzed as a change in first-order rate constant as a function of inhibitor concentration to yield the apparent Ki values. […]
The absorbance at 390 nm versus time is monitored for 90 seconds using a spectrophotometer and the rate constants are determined from the absorbance versus time data files. […]

With `CCC(C)(C)C(=O)C(=O)N1CSCC1C(=O)OCCCc1cccnc1` [Compound 2, 3-(3-pyridyl)-1-propyl(2S)-1-(3,3-dimethyl-1,2-dioxopentyl) -2-(4-thiazolidine) carboxylate] the “neurite outgrowth in sensory neurons (photomicrograph)” value (shortened to “neurite outgrowth in sensory neurons”) ([1]; 10 pM) was “promoting neurite outgrowth”, the “neurite outgrowth in sensory neurons” value ([1]; 100 pM) was “promoting neurite outgrowth” and the “neurite outgrowth in sensory neurons” value ([1]; 10 nM) was “promoting neurite outgrowth”. It also gave a Ki (FKBP12 (FKBP)) of 638 nM.
For `CCC(C)(C)C(=O)C(=O)N1CSCC1C(=O)OCCCc1ccccc1` [Compound 1, 3-phenyl-1-propyl(2S)-1-(3,3-dimethyl-1,2-dioxopentyl)-2-(4-thiazolidine)carboxylate], the “neurite outgrowth in sensory neurons” value ([1]; 1 pM) was “promoting neurite outgrowth”, the “neurite outgrowth in sensory neurons” value ([1]; 10 pM) was “promoting neurite outgrowth” and the “neurite outgrowth in sensory neurons” value ([1]; 100 pM) was “promoting neurite outgrowth”. For the same compound, the Ki (FKBP12 (FKBP)) was 215 nM.
